{"source": "patent US20240398756A1", "about": "“DRUG FOR REDUCING BLOOD GLUCOSE AND/OR TREATING DIABETIC COMPLICATIONS” (SICHUAN UNIVERSITY, priority 2022, published 2024)", "key": {"[1]": {"test_system": "C57BL/KsJ db/db mice", "test": "Blood glucose in db/db type 2 diabetes mice (Embodiment 4)", "format": "in vivo", "settings": "gavage; for reduction of blood glucose contents: 1 month, nanoparticles 100 mg/kg once every 3 days, LA monomer 100 mg/kg and metformin 120 mg/kg once a day, relative to model-normal control difference", "description": "A total of 24 C57BL/KsJ db/db mice were randomly divided into 4 groups according to body weight and blood glucose, with 6 mice in each group. […] There were 6 littermate w/w male mice of the same week age as the solvent control group. […] After administration of a single dose, the blood glucose changes of mice were continuously monitored for 3 days. During the 1-month treatment cycle, the blood glucose changes of the mice were detected every 3 days. On the 30th day, 2 h after the end of administration, the blood glucose of mice was measured, and the percentage of blood glucose reduced by the drug was calculated based on the difference between the blood glucose of the model and the normal control group. The mice were killed by enucleation and bloodletting, serum samples were collected by centrifugation at room temperature, the serum insulin content was detected by mouse insulin ELISA detection kit, and the insulin resistance index was calculated, and the percentage of the drug to reduce the serum insulin content and insulin resistance index was calculated based on the difference between the model and the normal control group.\nThe results of the quantitative experiment were expressed as mean±variance (x±s). SPSS version19.0 Statistical Software (Chicago, IL, USA) was used to compare the differences between groups using one-way analysis of variance. When the difference was significant (P<0.05), the Turkey post hoc method was used for pairwise comparison, and when P<0.05, the difference was considered statistically significant."}, "[2]": {"test_system": "C57BL/KsJ db/db mice", "test": "Serum insulin content and insulin resistance index in db/db diabetic mice", "format": "in vivo", "settings": "gavage, end of 1 month treatment, nanoparticles 100 mg/kg every 3 days, LA monomer 100 mg/kg and metformin 120 mg/kg daily", "from_the_text": "8-week male C57BL/KsJ db/db mice, SPF grade, provided by Jiangsu GemPharmatech Co. Ltd., Changzhou Branch, certificate number: 202012449, with an initial weight of 44±2 g, underwent adaptive feeding for one week. A total of 24 C57BL/KsJ db/db mice were randomly divided into 4 groups according to body weight and blood glucose, with 6 mice in each group. […] There were 6 littermate w/w male mice of the same week age as the solvent control group. […] After administration of a single dose, the blood glucose changes of mice were continuously monitored for 3 days. During the 1-month treatment cycle, the blood glucose changes of the mice were detected every 3 days. […] The mice were killed by enucleation and bloodletting, serum samples were collected by centrifugation at room temperature, the serum insulin content was detected by mouse insulin ELISA detection kit, and the insulin resistance index was calculated, and the percentage of the drug to reduce the serum insulin content and insulin resistance index was calculated based on the difference between the model and the normal control group. The results of the quantitative experiment were expressed as mean±variance (x±s). SPSS version19.0 Statistical Software (Chicago, IL, USA) was used to compare the differences between groups using one-way analysis of variance. When the difference was significant (P<0.05), the Turkey post hoc method was used for pairwise comparison, and when P<0.05, the difference was considered statistically significant."}, "[3]": {"test_system": "C57BL/KsJ db/db mice", "test": "Blood glucose in db/db diabetic nephropathy mice (Embodiment 6)", "format": "in vivo", "settings": "30 mg/kg intraperitoneal once a day, four weeks", "description": "10-week male C57BL/KsJ db/db mice, SPF grade, provided by Jiangsu GemPharmatech Co. Ltd., Changzhou Branch, certificate number: 202012449, with an initial weight of 44±2 g, underwent adaptive feeding for two weeks. […] There were 6 littermate w/w male mice of the same week age as the solvent control group. Different doses were given by intraperitoneal injection at 10 mL/kg volume once a day for four weeks, respectively, and equal volumes of normal saline were given by intraperitoneal injection in the control and model groups. During the treatment cycle, the blood glucose changes in mice were detected every three days, and the percentages of blood glucose reduced by the drugs were calculated based on the difference between the blood glucose of the model and the normal control group, so as to clarify the hypoglycemic effect of the drugs. […] The results of the quantitative experiment were expressed as mean±variance (x±s). SPSS version19.0 Statistical Software (Chicago, IL, USA) was used to compare the differences between groups using one-way analysis of variance. When the difference was significant (P<0.05), the Turkey post hoc method was used for pairwise comparison, and when P<0.05, the difference was considered statistically significant."}, "[4]": {"test_system": "C57BL/KsJ db/db mice", "test": "Serum CRE, BUN and UACR in diabetic nephropathy mice", "format": "in vivo", "settings": "30 mg/kg i.p. once a day, four weeks", "description": "(§1) 10-week male C57BL/KsJ db/db mice, SPF grade, provided by Jiangsu GemPharmatech Co. Ltd., Changzhou Branch, certificate number: 202012449, with an initial weight of 44±2 g, underwent adaptive feeding for two weeks. […] There were 6 littermate w/w male mice of the same week age as the solvent control group. Different doses were given by intraperitoneal injection at 10 mL/kg volume once a day for four weeks, respectively, and equal volumes of normal saline were given by intraperitoneal injection in the control and model groups. During the treatment cycle, the blood glucose changes in mice were detected every three days, and the percentages of blood glucose reduced by the drugs were calculated based on the difference between the blood glucose of the model and the normal control group, so as to clarify the hypoglycemic effect of the drugs."}, "[5]": {"test_system": "C57BL/KsJ db/db mice", "test": "Kidney tissue pathology (HE, PAS, TEM) in diabetic nephropathy mice", "format": "in vivo", "settings": "30 mg/kg i.p. once a day, four weeks", "description": "as §1"}, "[6]": {"test_system": "C57BL/KsJ db/db mice", "test": "MDA content and SOD activity in kidney tissues", "format": "in vivo", "settings": "30 mg/kg i.p. once a day, 4 weeks", "description": "as §1"}, "[7]": {"test_system": "C57BL/KsJ db/db mice", "test": "Transcript levels of TNF-α, IL-1β and IL-6 genes in kidney tissues", "format": "in vivo", "settings": "30 mg/kg i.p. once a day, 4 weeks", "description": "as §1"}, "[8]": {"test_system": "C57BL/KsJ db/db mice", "test": "Blood glucose in db/db diabetic peripheral neuropathy mice (Embodiment 8)", "format": "in vivo", "settings": "50 mg/kg i.p. three times a week, 8 weeks", "description": "(§2) Eighteen 16-week male C57BL/KsJ db/db mice, SPF grade, provided by Jiangsu GemPharmatech Co. Ltd., Changzhou Branch. […] The littermate w/w male mice of the same age were selected as the control group. The heat pain threshold was measured in all mice before administration to determine DPN symptoms. […] The control group and the db/db model group were intraperitoneally injected with an equal volume of saline. During the treatment period, blood glucose changes in mice were monitored every three days to determine the hypoglycemic effect of the drug. At the end of the 8th week, the heat pain threshold was detected. Mice were sacrificed to detect related factors through detection kits."}, "[9]": {"test_system": "C57BL/KsJ db/db mice", "test": "Na+-K+-ATPase activity in red blood cells and sciatic nerve", "format": "in vivo", "settings": "50 mg/kg i.p. three times a week, 8 weeks", "description": "as §2\nAfter 8 weeks treatment, all mice were sacrificed and the sciatic nerve was isolated. In order to determine the activity of Na^+—K^+-ATPase in red blood cells and sciatic nerve of mice, 10 μL whole blood was collected and added into 240 μL distilled water for mixing, and the activity of Na^+—K^+-ATPase was determined immediately. The sciatic nerve tissue of mice was collected. First, the sciatic nerve was cut into fragments (100 mg: 1800 μL) with small scissors in normal saline and homogenized with Beed Ruptor 24 Elite. Then, the homogenate was centrifuged at 4° C. and 3500 rpm for 15 min, and the supernatant was collected for use."}, "[10]": {"test_system": "C57BL/KsJ db/db mice", "test": "SOD activity and MDA, GSH contents in sciatic nerve", "format": "in vivo", "settings": "50 mg/kg i.p. three times a week, 8 weeks", "description": "as §2\n(§3) At the end of the experiment, mice were sacrificed and sciatic nerve cells were isolated. In order to determine the contents of MDA, GSH, SOD, TNF-α, IL-6 and IL-1β in the sciatic nerve, the sciatic nerve was first cut into fragments (100 mg: 1800 μL) with small scissors in normal saline and homogenized with Beed Ruptor 24 Elite. Then, the homogenate was centrifuged at 4° C. and 3500 rpm for 15 min, and the supernatant was collected for use. Then, commercial kits were used to determine the activity of SOD and the contents of MDA, GSH, TNF-α, IL-6 and IL-1β in sciatic nerve homogenate."}, "[11]": {"test_system": "C57BL/KsJ db/db mice", "test": "TNF-α, IL-1β and IL-6 contents in sciatic nerve", "format": "in vivo", "settings": "50 mg/kg i.p. three times a week, 8 weeks", "description": "as §2, §3"}, "[12]": {"settings": "intravenous injection, human body; cited from earlier work"}}, "note": "Counter-ions that a name gives are not always drawn."}
{"smiles": "O=C(O)CCCCC1CCSS1", "note": "(centres unmarked) [LA monomer, lipoic acid]", "values": [{"measurement": "reduction of blood glucose contents", "setting": "[1]", "result": "no hypoglycemic effect"}, {"measurement": "blood glucose levels versus model group after a single dose", "setting": "[1]; single dose 100 mg/kg, monitored 3 days", "result": "no significant difference"}, {"measurement": "decrease of serum insulin content", "setting": "[2]", "result": "no significant difference"}, {"measurement": "reduction of blood glucose content", "setting": "[3]", "result": "no hypoglycemic effect"}, {"measurement": "decrease of BUN content vs db/db model group", "setting": "[4]", "result": 25.45, "unit": "%"}, {"measurement": "decrease of UACR level vs db/db model group", "setting": "[4]", "result": 24.75, "unit": "%"}, {"measurement": "decrease of serum CRE vs db/db model group", "setting": "[4]", "result": 21.05, "unit": "%"}, {"measurement": "decrease of basement membrane thickness vs db/db model group", "setting": "[5]", "result": 6.57, "unit": "%"}, {"measurement": "increase of number of foot processes vs db/db model group", "setting": "[5]", "result": 10.14, "unit": "%"}, {"measurement": "shrinkage of glomeruli vs db/db model group", "setting": "[5]", "result": 25.50, "unit": "%"}, {"measurement": "increase of SOD activity in kidney tissues", "setting": "[6]", "result": 55, "unit": "%"}, {"measurement": "reduction of MDA content in kidney tissues", "setting": "[6]", "result": 9.8, "unit": "%"}, {"measurement": "reduction of IL-1β transcript level in kidney", "setting": "[7]", "result": 18.18, "unit": "%"}, {"measurement": "reduction of IL-6 transcript level in kidney", "setting": "[7]", "result": 23.33, "unit": "%"}, {"measurement": "reduction of TNF-α transcript level in kidney", "setting": "[7]", "result": 22.5, "unit": "%"}, {"measurement": "hypoglycemic effect (in words)", "setting": "[8]", "result": "no hypoglycemic effect"}, {"measurement": "increase of Na+-K+-ATPase activity in sciatic nerve vs db/db mice", "setting": "[9]", "result": 120, "unit": "%"}, {"measurement": "increase of Na+-K+-ATPase activity of red blood cells vs db/db mice", "setting": "[9]", "result": 137, "unit": "%"}, {"measurement": "decrease of MDA content in sciatic nerve", "setting": "[10]", "result": 30.79, "unit": "%"}, {"measurement": "increase of GSH content in sciatic nerve", "setting": "[10]", "result": 10.79}, {"measurement": "increase of SOD activity in sciatic nerve", "setting": "[10]", "result": 15.76, "unit": "%"}, {"measurement": "decrease of IL-1β level in sciatic nerve tissue vs db/db mice", "setting": "[11]", "result": 27.46, "unit": "%"}, {"measurement": "decrease of IL-6 level in sciatic nerve tissue vs db/db mice", "setting": "[11]", "result": 38.42, "unit": "%"}, {"measurement": "decrease of TNF-α level in sciatic nerve tissue vs db/db mice", "setting": "[11]", "result": 34.42, "unit": "%"}, {"measurement": "fraction passing through the glomerulus into the renal tubules and excreted in the urine", "setting": "[12]", "result": "80-90%"}]}
{"smiles": "CN(C)C(=N)N=C(N)N", "note": "[metformin, metformin hydrochloride]", "values": [{"measurement": "reduction of blood glucose contents", "setting": "[1]", "result": 50.28, "unit": "%"}, {"measurement": "duration of hypoglycemic effect after a single dose", "setting": "[1]; single dose, nanoparticles 100 mg/kg, metformin 120 mg/kg", "result": "≤ 24", "unit": "h"}, {"measurement": "decrease of insulin resistance index", "setting": "[2]", "result": 53.68, "unit": "%"}, {"measurement": "decrease of serum insulin content", "setting": "[2]", "result": 34.69, "unit": "%"}]}
